{
  "source": "patent WO2015077660A1",
  "about": "“Enzyme reactor system enabling enhanced enzymatic digestion, analyte solubility and improved mass spectrometric compatibility” (priority 2013, dated 2014)",
  "key": {"[1]": {"experiment": "Aggregation of BSA in IMER, ammonium acetate, 5mM CaCl2, 0.1% octylglucoside (Table 33)", "format": "physicochemical", "settings": "0.1% in 50mM ammonium acetate, 5mM CaCl2, 70°C"}, "porcine trypsin": {"test_system": "T1, porcine trypsin", "T1 construct": "purchased", "experiment": "Insulin digestion by trypsin in solution, buffer screening (Table 9)", "format": "biochemical", "settings": "for Digested / Peptide / Undigested: 37°C, 18 h"}, "[2]": {"experiment": "Plasma digestion with buffer/additive combinations, aggregation", "format": "physicochemical, beagle", "settings": "100mM CaCl2, 90 minutes"}, "BSA": {"test_system": "BSA", "experiment": "Screen of additives for prevention of aggregation (Table 5)", "format": "physicochemical, bovine", "settings": "12.5 mg/mL BSA, 70°C, four columns in printed order, heads missing"}, "trypsin": {"test_system": "trypsin", "experiment": "Insulin digestion in immobilized enzyme reactor, buffer screening (Table 7)", "format": "biochemical, porcine", "settings": "IMER, 70°C, 60 s"}, "[3]": {"experiment": "Aggregation of BSA in IMER, ammonium acetate, 5mM CaCl2, 5% glycerol (Table 34)", "format": "physicochemical", "settings": "5% and 10% (Tables 34 and 35), 50mM ammonium acetate, 5mM CaCl2, 70°C"}, "[4]": {"experiment": "Aggregate formation on digestion at high protein loads", "format": "physicochemical, monkey", "settings": "10% final concentration with 500 mM CaCl2"}},
  "data": [
    {"smiles": "CCCCCCCCO[C@@H]1O[C@H](CO)[C@@H](O)[C@H](O)[C@H]1O", "note": "[OGS, octylglucoside]", "values": [
      {"measurement": "sample solubility and aggregation", "setting": "[1]", "result": "enhances sample solubility and prevents aggregation"},
      {"measurement": "Digested", "setting": "porcine trypsin; 0.05%", "result": 1424601},
      {"measurement": "Peptide", "setting": "porcine trypsin; 0.05%", "result": 581489},
      {"measurement": "Undigested", "setting": "porcine trypsin; 0.05%", "result": 3798587},
      {"measurement": "Digested", "setting": "porcine trypsin; 0.1%", "result": 1616907},
      {"measurement": "Peptide", "setting": "porcine trypsin; 0.1%", "result": 675287},
      {"measurement": "Undigested", "setting": "porcine trypsin; 0.1%", "result": 4128179},
      {"measurement": "Digested", "setting": "porcine trypsin; 0.15%", "result": 1538290},
      {"measurement": "Peptide", "setting": "porcine trypsin; 0.15%", "result": 636117},
      {"measurement": "Undigested", "setting": "porcine trypsin; 0.15%", "result": 3751677},
      {"measurement": "Digested", "setting": "porcine trypsin; 0.2%", "result": 1574071},
      {"measurement": "Peptide", "setting": "porcine trypsin; 0.2%", "result": 619589},
      {"measurement": "Undigested", "setting": "porcine trypsin; 0.2%", "result": 3732438},
      {"measurement": "aggregation", "setting": "[2]; 0.1% in 50mM TBS", "result": "significant aggregation"},
      {"measurement": "aggregation", "setting": "BSA; additive concentration not given", "result": "Ν"},
      {"measurement": "Digested", "setting": "trypsin; 0.05%", "result": 2394275},
      {"measurement": "Peptide", "setting": "trypsin; 0.05%", "result": 958775},
      {"measurement": "Undigested", "setting": "trypsin; 0.05%", "result": 1730676},
      {"measurement": "Digested", "setting": "trypsin; 0.1%", "result": 2255277},
      {"measurement": "Peptide", "setting": "trypsin; 0.1%", "result": 891922},
      {"measurement": "Undigested", "setting": "trypsin; 0.1%", "result": 2114234},
      {"measurement": "Digested", "setting": "trypsin; 0.15%", "result": 2430665},
      {"measurement": "Peptide", "setting": "trypsin; 0.15%", "result": 942341},
      {"measurement": "Undigested", "setting": "trypsin; 0.15%", "result": 2160281},
      {"measurement": "Digested", "setting": "trypsin; 0.2%", "result": 2255277},
      {"measurement": "Peptide", "setting": "trypsin; 0.2%", "result": 891922},
      {"measurement": "Undigested", "setting": "trypsin; 0.2%", "result": 2114234}
    ]},
    {"smiles": "OCC(O)CO", "note": "[Glycerol]", "values": [
      {"measurement": "sample solubility and aggregation", "setting": "[3]", "result": "enhances sample solubility and prevents aggregation"},
      {"measurement": "Digested", "setting": "porcine trypsin; 5%", "result": 1007768},
      {"measurement": "Peptide", "setting": "porcine trypsin; 5%", "result": 432166},
      {"measurement": "Undigested", "setting": "porcine trypsin; 5%", "result": 3685707},
      {"measurement": "Digested", "setting": "porcine trypsin; 10%", "result": 833521},
      {"measurement": "Peptide", "setting": "porcine trypsin; 10%", "result": 353626},
      {"measurement": "Undigested", "setting": "porcine trypsin; 10%", "result": 4404492},
      {"measurement": "Digested", "setting": "porcine trypsin; 20%", "result": 654553},
      {"measurement": "Peptide", "setting": "porcine trypsin; 20%", "result": 275165},
      {"measurement": "Undigested", "setting": "porcine trypsin; 20%", "result": 5163829},
      {"measurement": "digestion efficiency", "setting": "porcine trypsin; lower to moderate concentrations", "result": "does not significantly, negatively impact digestion efficiency"},
      {"measurement": "formation of aggregates", "setting": "[4]", "result": "prevented the formation of aggregates"},
      {"measurement": "aggregation", "setting": "[2]; 10% in 50mM TBS", "result": "no aggregation"},
      {"measurement": "aggregation", "setting": "BSA; 5%", "result": "Ν"},
      {"measurement": "aggregation", "setting": "BSA; 10%", "result": "Ν"},
      {"measurement": "Digested", "setting": "trypsin; 5%", "result": 2051870},
      {"measurement": "Peptide", "setting": "trypsin; 5%", "result": 828171},
      {"measurement": "Undigested", "setting": "trypsin; 5%", "result": 2217803},
      {"measurement": "Digested", "setting": "trypsin; 10%", "result": 1779261},
      {"measurement": "Peptide", "setting": "trypsin; 10%", "result": 697488},
      {"measurement": "Undigested", "setting": "trypsin; 10%", "result": 2432362},
      {"measurement": "Digested", "setting": "trypsin; 20%", "result": 1167862},
      {"measurement": "Peptide", "setting": "trypsin; 20%", "result": 445736},
      {"measurement": "Undigested", "setting": "trypsin; 20%", "result": 3174668}
    ]}
  ]
}
